Read-outs that look alike come from different tables or passages of the source.
How the values were obtained:
KPC-2 [1] = target: T1, KPC-2 (Klebsiella pneumoniae, UniProt Q9F663); assay type: biochemical
T1 construct: made in house
Description: (§1) Antibiotic hydrolysis was measured at 25 °C in kinetics buffer (10 mM HEPES, pH 7.5 and 150 mM NaCl, 100 μg per mL bovine […] albumin (BSA)). […] Hydrolysis was followed using Greiner half area 96-well plates and a BMG CLARIOstar Plus microplate reader. GraphPad Prism 9.3.1 (GraphPad Software, La Jolla, CA, USA; https://www.graphpad.com) was used to calculate kinetic parameters. Initial rates of antibiotic hydrolysis measured across a range of antibiotic concentrations were used to calculate steady-state parameters according to the Michaelis–Menten equation.

KPC-2^G89D [2] = target: T2, KPC-2^G89D (Klebsiella pneumoniae, UniProt Q9F663, G88D); assay: Steady-state kinetics of β-lactam hydrolysis by KPC-2^G89D; assay type: biochemical; details: for Kcat / K M: KPC-2^G89D, 25 °C, standard error in parentheses; for Kcat: 10 mM HEPES pH 7.5, 150 mM NaCl, BSA; for K M: pH 7.5; for decrease in catalytic efficiency (kcat/KM): KPC-2^G89D compared to wild-type KPC-2
T2 construct: made in house; host or cells: E. coli
T2 sequence (Q9F663 25-293 G88D): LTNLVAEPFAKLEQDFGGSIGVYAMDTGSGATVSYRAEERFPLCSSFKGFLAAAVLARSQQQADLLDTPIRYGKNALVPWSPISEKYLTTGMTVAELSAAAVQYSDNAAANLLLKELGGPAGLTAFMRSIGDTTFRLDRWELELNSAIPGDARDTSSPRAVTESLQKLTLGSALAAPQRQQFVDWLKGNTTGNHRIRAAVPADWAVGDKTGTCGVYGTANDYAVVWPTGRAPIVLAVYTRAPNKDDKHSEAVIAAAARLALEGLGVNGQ
Description: as §1

SHV-1 = system: SHV-1; parameters: method as in Liakopoulos et al. [2]; details: ND = no detected hydrolysis, ref Liakopoulos et al. [2]; cited from earlier work
SHV-38 = system: SHV-38; parameters: method as in Poirel et al [3]; details: ref Poirel et al [3]; cited from earlier work
SHV-2 = system: SHV-2; parameters: method as in Liakopoulos et al. [2]; details: ref Liakopoulos et al. [2], cited from earlier work
KPC-2 [3] = target: T1, KPC-2; assay: Pre-steady-state (stopped-flow tryptophan fluorescence) binding kinetics, KPC-2
Description: (§2) Pre-steady state kinetics were measured by mixing meropenem with KPC-2 or KPC-2^G89D (both 10 nM concentration) in an Applied Photophysics SX20 stopped-flow spectrometer connected to a photodiode array detector in kinetics buffer. Data were fitted from 0.005 to 0.3 s for both 5 repeats of each of KPC-2 : meropenem and KPC-2^G89D : meropenem. k1 and k−1 were calculated from the gradient and the y-intercept of the kobsvs. substrate concentration curves. KD is calculated using the following equation: [drawing 1]
(§3) Figure S11: Binding kinetics of meropenem calculated using pre-steady state kinetics. a) Kinetic model for binding and hydrolysis of β-lactam substrates by serine β-lactamases. KD is calculated by k-1 / k1. Normalised tryptophan fluorescence curves, averaged over 5 transients, measured from 0.005 s to 0.25 s, for meropenem binding to KPC-2 (b) and KPC-2G89D (both at 10 nM) (c) were used to calculate kobs over a range of concentrations using one phase decay curve fitting. kobs was plotted for KPC-2 (d) and KPC-2G89D (e), and a linear regression used to calculate the y-intercept (k-1) and the slope (k 1). The calculated KD values are 3.7 μM and 5.9 μM for KPC-2 and KPC-2G89D. […]

KPC-2^G89D [4] = target: T2, KPC-2^G89D; assay: Pre-steady-state (stopped-flow tryptophan fluorescence) binding kinetics, KPC-2^G89D
Description: as §2, §3

KPC-2^G89D [5] = target: T2, KPC-2^G89D; assay: Inhibition of nitrocefin hydrolysis (IC50), KPC-2^G89D; assay type: biochemical; details: nitrocefin 200 μM, 10 minute pre-incubation of enzyme and inhibitor
KPC-2 [6] = target: T1, KPC-2; assay: Inhibition of nitrocefin hydrolysis (IC50), KPC-2; assay type: biochemical; details: wild-type KPC-2; nitrocefin 200 μM, 10 minute pre-incubation
Description: Both inhibitors were dissolved in kinetics buffer.

[7] = KPC-2, 25 °C, 10 mM HEPES pH 7.5, 150 mM NaCl, BSA, standard error in parentheses
[8] = KPC-2, 25 °C, pH 7.5, standard error in parentheses

T1 sequence (Q9F663 25-293 limits assumed): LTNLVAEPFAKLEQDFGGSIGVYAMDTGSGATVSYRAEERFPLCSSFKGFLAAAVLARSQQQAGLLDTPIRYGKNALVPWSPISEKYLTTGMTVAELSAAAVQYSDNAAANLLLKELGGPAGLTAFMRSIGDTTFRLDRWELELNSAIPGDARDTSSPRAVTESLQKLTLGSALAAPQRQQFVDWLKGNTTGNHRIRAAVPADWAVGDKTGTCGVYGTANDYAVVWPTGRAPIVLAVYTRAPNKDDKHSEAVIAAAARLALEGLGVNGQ

Compound: CC1(C)S[C@@H]2[C@H](NC(=O)[C@H](N)c3ccccc3)C(=O)N2[C@H]1C(=O)O [Ampicillin]
- K M (KPC-2 [1]; pH 7.5): 271 (44.7) μM
- Kcat (KPC-2 [1]; pH 7.5): 82.3 (3.92) s^−1
- Kcat (KPC-2^G89D [2]): 160 (5.83) s^−1
- K M (KPC-2^G89D [2]): 201 (36.3) μM

Compound: CC1(C)S[C@@H]2[C@H](NC(=O)Cc3ccccc3)C(=O)N2[C@H]1C(=O)O [Benzylpenicillin]
- Kcat (SHV-1): 455 s⁻¹
- Km (SHV-1): 20 µM
- Kcat (SHV-38): 100 s⁻¹
- Km (SHV-38): 13 µM
- Km (SHV-2; ND = no detected hydrolysis): 3.8 µM
- Vmax (SHV-2): 100 µM/min

Compound: CO/N=C(\C(=O)N[C@@H]1C(=O)N2C(C(=O)O)=C(COC(C)=O)CS[C@H]12)c1csc(N)n1 [Cefotaxime]
- Kcat (SHV-38): 1 s⁻¹
- Km (SHV-38): 800 µM
- Kcat (SHV-2; ND = no detected hydrolysis): 11 s⁻¹
- Km (SHV-2; ND = no detected hydrolysis): 18 µM
- Vmax (SHV-2): 70 µM/min

Compound: CC(C)(O/N=C(\C(=O)N[C@@H]1C(=O)N2C(C(=O)[O-])=C(C[n+]3ccccc3)CS[C@H]12)c1csc(N)n1)C(=O)O [Ceftazidime]
- Kcat (SHV-38): 110 s⁻¹
- Km (SHV-38): 3800 µM
- Km (SHV-2; ND = no detected hydrolysis): 24 µM
- Vmax (SHV-2): 6.5 µM/min

Compound: CC(=O)OCC1=C(C(=O)O)N2C(=O)[C@@H](NC(=O)Cc3cccs3)[C@H]2SC1 [Cephalothin]
- Kcat (SHV-1): 10 s⁻¹
- Km (SHV-1): 26 µM
- Kcat (SHV-38): 5 s⁻¹
- Km (SHV-38): 100 µM

Compound: C[C@@H](O)[C@H]1C(=O)N2C(C(=O)O)=C(SCCN=CN)C[C@H]12 [Imipenem]
- Kcat (KPC-2 [1]; [7]): 22 (0.43) s^−1
- K M (KPC-2 [1]; [8]): 72 (3.2) μM
- decrease in catalytic efficiency (kcat/KM) (KPC-2^G89D [2]): 10 fold
- Kcat (KPC-2^G89D [2]): 2.8 (0.12) s^−1
- K M (KPC-2^G89D [2]): 68.9 (10.2) μM
- Kcat (SHV-38): 0.01 s⁻¹
- Km (SHV-38): 24 µM

Compound: C[C@@H](O)[C@H]1C(=O)N2C(C(=O)O)=C(S[C@@H]3CN[C@H](C(=O)N(C)C)C3)[C@H](C)[C@H]12 [Meropenem]
- Kd (KPC-2 [3]): 3700 nM
- Kd (KPC-2^G89D [4]): 5900 nM
- Kcat (KPC-2 [1]; [7]): 21.5 (0.12) s^−1
- K M (KPC-2 [1]; [8]): 7.1 (1.01) μM
- decrease in catalytic efficiency (kcat/KM) (KPC-2^G89D [2]): 100 fold
- Kcat (KPC-2^G89D [2]): 0.2 (1 × 10^−2) s^−1
- K M (KPC-2^G89D [2]): 7.9 (1.57) μM

Compound: O=C(NNC(=O)[C@@H]1CC[C@@H]2CN1C(=O)N2OS(=O)(=O)O)[C@@H]1CCCNC1 [Zidebactam]
- IC50 (KPC-2^G89D [5]): 0.7 nM
- IC50 (KPC-2 [6]): 0.06 nM

— paper PMC11443494, “Dynamical responses predict a distal site that modulates activity in an antibiotic resistance enzyme” (Chemical Science, 2024)
